Molecules are shown by their SMILES. Converted amounts (≈) assume the structure as drawn.

This is an account of results in DBAASP.

Among the test systems are Acinetobacter baumannii; Aeromonas hydrophila; Alcaligenes faecalis; Bacillus megaterium; Enterobacter cloacae; Escherichia coli D31; Haemophilus Influenzae; Klebsiella aerogenes; Pseudomonas aeruginosa; Salmonella typhimurium; Staphylococcus aureus; Vibrio alginolyticus.
Common to all, as to assay: ≥ marks a high value that may be exact or a test limit, other limits are often not marked, values filed in µg/mL are converted to µM
Assay [1] relates to Dermacoccus nishinomiyaensis.
For assay [2], the system named is Micrococcus luteus IFO 12708.
The subject of assay [3] is Staphylococcus epidermidis.
Assay [4] deals with Staphylococcus haemolyticus.
Assay [5] has as its system Staphylococcus saprophyticus.

As for `CC(C)C[C@H](NC(=O)[C@H](Cc1c[nH]c2ccccc12)NC(=O)[C@H](C)NC(=O)CNC(=O)[C@@H](N)CC(C)C)C(=O)N[C@@H](C)C(=O)NCC(=O)N[C@@H](CCCCN)C(=O)N[C@H](C(=O)N[C@@H](C)C(=O)NCC(=O)N[C@H](C(=O)N[C@H](C(=O)N[C@@H](C)C(=O)N[C@H](C(=O)N[C@@H](Cc1ccc(O)cc1)C(=O)N[C@@H](C)C(=O)N[C@@H](Cc1c[nH]c2ccccc12)C(=O)N[C@@H](CC(N)=O)C(=O)N[C@@H](CCCN=C(N)N)C(=O)N[C@@H](Cc1ccc(O)cc1)C(=O)N[C@H](C(N)=O)C(C)C)[C@@H](C)O)C(C)C)[C@@H](C)O)C(C)C` [LGAWLAGKVAGTVATYAWNRYV], the MIC in the assay on Acinetobacter baumannii worked out at 25 µM (≈ 59.2 µg/mL); against Aeromonas hydrophila it was 25 µM (≈ 59.2 µg/mL); in the assay on Alcaligenes faecalis it was 25 µM (≈ 59.2 µg/mL); in the assay on Bacillus megaterium it was 25 µM (≈ 59.2 µg/mL); in [1], 0.566 µM (≈ 1.34 µg/mL); against Enterobacter cloacae, 25 µM (≈ 59.2 µg/mL). For the same compound, the MIC against Escherichia coli D31 was 25 µM (≈ 59.2 µg/mL); with Haemophilus Influenzae, 25 µM (≈ 59.2 µg/mL); in the assay on Klebsiella aerogenes, 25 µM (≈ 59.2 µg/mL); in assay [2] it was 0.566 µM (≈ 1.34 µg/mL); in the assay with Pseudomonas aeruginosa, greater than 25 µM; in the assay with Salmonella typhimurium it was 25 µM (≈ 59.2 µg/mL). Further, the MIC stood at 4.24 µM (≈ 10 µg/mL) in the assay on Staphylococcus aureus; 4.24 µM (≈ 10 µg/mL) in [3]; 4.24 µM (≈ 10 µg/mL) in [4]; 4.24 µM (≈ 10 µg/mL) in assay [5]; 1.13 µM (≈ 2.68 µg/mL) against Vibrio alginolyticus.
